Results reported in US20250032504A1, “NOVEL APPLICATION OF KINASE INHIBITOR” (TRANSTHERA SCIENCES (NANJING), INC., priority 2021, published 2025).

Tests used:
[1] = tested on: human prostate cancer LD1-0034-361929 subcutaneous xenograft tumor model; test: In-vivo pharmacodynamic study on human castration resistant prostate cancer PDX subcutaneous tumor model; set-up: species or system male Nu/Nu nude mice; settings: abiraterone-resistant CRPC PDX in nude mice, oral intragastric Qd, 39 days, compound 29 15 mg/kg, abiraterone 200 mg/kg; for TGI (%): TGI=1−T/C
Procedure: Test sample: compound 29 of the present invention, the structure of which is shown above, and which was prepared as described in the detailed description of WO2018108079A1. Abiraterone was obtained from commercially available sources.
Animals, information on the patient from whom the tumor masses were derived, and other materials: human prostate cancer tumor sample LD1-0034-361929, derived from a patient resistant to abiraterone; clinical diagnosis: castration resistant prostate cancer with bladder metastatic lesions, pathological diagnosis: prostate cancer-poorly differentiated adenocarcinoma; • male Nu/Nu nude mice, aged 6-8 weeks.
The tumor masses were inoculated into the right back of mice, and the animals were weighed before administration. Tumor volumes were measured, and grouping was designed in blocks according to the tumor volumes.
Administration was carried out as in the table below.
The animals were monitored daily for health status and mortality, body weight and tumor volume were measured twice a week, and samples were collected after the last administration. The therapeutic effect on tumor volume was evaluated by TGI %, wherein the relative tumor inhibition rate TGI (%): TGI=1−T/C (%). T/C % is the relative tumor proliferation rate, i.e., the percentage of the relative tumor volume in the treatment and control groups at a given time point. T and C are relative tumor volumes (RTVs) of the treatment and control groups at a given time point, respectively. The calculation formula is as follows: T/C %=TRTV/CRTV×100% (TRTV: mean RTV for treatment group; CRTV: mean RTV for vehicle control group; RTV=Vt/V0, wherein V0 is the tumor volume of the animal at the time of grouping, and Vt is the tumor volume of the animal after treatment).

PC-3 = test: Prostate cancer cell proliferation assay (Cell titer-Glo, 72 h), PC-3; format: cell-based; settings: Homo sapiens, PC-3 cells, inhibition of proliferation, read-out: Compound IC50/nM
Procedure: (§1) Prostate cancer cell materials: DU145, PC-3, VCaP, and LNCaP clone FGC.
(§2) Test instrument: PE Envision multimode microplate reader.
(§3) Each cell line was seeded in a 384-well plate for adherent culture overnight, and then compounds at different concentrations (10 dose groups, serial 4-fold dilution with DMSO) were added to give a maximum final concentration of 10000 nM, wherein the final DMSO content was 0.33%, and staurosporine at a final concentration of 10 μM was used as a system positive control ([…] inhibition). Negative control wells contained medium with the same amount of DMSO (0% inhibition). The plate was incubated at 37° C., 5% CO2 and 95% humidity for 72 h for later test. 30 μL of Cell titer-Glo reagent was added to each well, and after the plate was incubated at room temperature for 30 min, the final data were read using the microplate reader.
(§4) The data were calculated as follows:
(§5) Inhibition rate (%)=100%−(compound signal−system positive control signal)/(negative control signal−system positive control signal)[…].

LNCaP clone FGC = test: Prostate cancer cell proliferation assay (Cell titer-Glo, 72 h), LNCaP clone FGC; format: cell-based; settings: Homo sapiens, LNCaP clone FGC cells, inhibition of proliferation, read-out: Compound IC50/nM
Procedure: as §1, §2, §3, §4, §5

DU145 = test: Prostate cancer cell proliferation assay (Cell titer-Glo, 72 h), DU145; format: cell-based; settings: Homo sapiens, DU-145, DU145 cells, inhibition of proliferation, read-out: Compound IC50/nM
Procedure: as §1, §2, §3, §4, §5

[2] = tested on: metastatic castration resistant prostate cancer; test: Clinical study in patients with metastatic castration resistant prostate cancer; format: in vivo, human; settings: among 11 mCRPC patients with response evaluation data (10 at 12 mg, 1 at 10 mg), oral once daily, 28-day cycles
Procedure: Test medicament: compound 29, the structure of which is shown above, and which was prepared as described in the detailed description of WO2018108079A1.
Inclusion criteria: patients with histopathologically or cytologically confirmed metastatic castration resistant prostate cancer for which no standard therapy is available.
Dosing regimen: compound 29 was administered orally at a prescribed dose (such as 8 mg, 10 mg, or 12 mg) once daily, with 28 consecutive days of administration being one cycle.
Response evaluation: among the 11 patients with response evaluation data (10 patients received a single dose of 12 mg, and 1 patient received a single dose of 10 mg), 7 patients achieved partial response (PR), and 2 patients reported stable disease (SD).

VCaP = test: Prostate cancer cell proliferation assay (Cell titer-Glo, 72 h), VCaP; format: cell-based; settings: Homo sapiens, VCaP cells, inhibition of proliferation, read-out: Compound IC50/nM
Procedure: as §1, §2, §3, §4, §5

Row | Structure (SMILES) | Tumor volume (mm^3) [1] | TGI (%) [1] | IC50 (PC-3) | IC50 (LNCaP clone FGC) | IC50 (DU145) | patients achieved partial response (PR) [2] | IC50 (VCaP)
1 | C[C@]12CC[C@H](O)CC1=CC[C@@H]1[C@@H]2CC[C@]2(C)C(c3cccnc3)=CC[C@@H]12 [Abiraterone, reference compound] | 1549.43 ± 533.15 mm^3 | −8.97% |  |  |  |  | 
2 | Cc1[nH]nc2c1N=C(c1ccccc1Cl)c1cnc(N3CCOCC3)cc1N2 [Compound 29] | 622.23 ± 247.3 mm^3 | 58.07% | < 1000 nM | 1000 to 10000 nM | < 1000 nM | 7 patients | < 1000 nM
